Measured values reported in the NIST ThermoML archive (doi:10.1021/acs.jced.9b00441).
Numbers after ± are expanded uncertainties.

Key:
[1] = Liquid; for mass density: 101.33 kPa, Vibrating tube method; for vapor or sublimation pressure: Closed cell (Static) method
[2] = refractive index (Na D-line) (dimensionless); conditions: 101.33 kPa, Liquid, Standard Abbe refractometry

Compound	mass density ([1]; 293.15 K)	refractive index ([2]; 293.15 K)	mass density ([1]; 298.15 K)	also measured
CC1CCCCC1 [methylcyclohexane]	769 ± 1 kg/m3	1.423 ± 0.001		
FC(F)=C(F)C(F)(F)F [hexafluoropropene]				vapor or sublimation pressure ([1]; 302.94 K): 838 ± 7 kPa; vapor or sublimation pressure ([1]; 312.91 K): 1094 ± 7 kPa; vapor or sublimation pressure ([1]; 322.94 K): 1407 ± 8 kPa; vapor or sublimation pressure ([1]; 332.94 K): 1783 ± 8 kPa; vapor or sublimation pressure ([1]; 342.92 K): 2225 ± 8 kPa
CCCCCC [hexane]			654 ± 1 kg/m3	refractive index ([2]; 298.15 K): 1.375 ± 0.001
C1CCCCC1 [cyclohexane]		1.423 ± 0.001	775 ± 1 kg/m3	

Further lines, with some results ahead:

mass density ([1]; 293.15 K)	Compound	refractive index ([2]; 293.15 K)	mass density ([1]; 298.15 K)	also measured
855 ± 1 kg/m3	CC1CCCO1 (stereo not given) [2-methyltetrahydrofuran]			refractive index ([2]; 294.15 K): 1.405 ± 0.001
1580 ± 2 kg/m3	OCC(F)(F)C(F)(F)C(F)(F)F [2,2,3,3,4,4,4-heptafluorobutanol]	1.264 ± 0.001		
